Measurements published in US5798392A, “Sulfonyl fluorides for the treatment of Alzheimer's disease” (The Board of Regents of the University of Texas System, priority 1996, dated 1998).
Entries after “also recorded” stand apart in the source; their conditions may differ.

How the values were obtained:
acetylcholinesterase [1] = details: cited from earlier work
[2] = molecular target: T1, erythrocyte acetylcholinesterase (Homo sapiens, UniProt P22303); assay: Erythrocyte acetylcholinesterase substrate kinetics; type: biochemical
[3] = molecular target: T1, erythrocyte acetylcholinesterase; assay: Erythrocyte acetylcholinesterase inhibition in blood after oral dosing of humans (Ellman assay); type: in vivo
[4] = Concentration in peripheral blood; details: in vivo
[5] = Chemical stability and solubility
rats and monkeys = assay: Pharmacological activity after intramuscular injection in oil vehicle; type: in vivo; details: i.m., sterile oil vehicle
animal memory = details: minimum of 50% inhibition; without toxicity; cited from earlier work
[6] = test system: patients suffering from SDAT; assay: Global Deterioration Scale, Experiment III; type: in vivo, human
[7] = test system: brain acetylcholinesterase; details: rodent and monkey brain; accumulated, small doses over a long period of time; up to; cited from earlier work
acetylcholinesterase [8] = assay: Reaction with acetylcholinesterase in brain membranes in vitro; type: biochemical; details: solubilized in brain membranes, after removal from aqueous environment
[9] = test system: patients suffering from SDAT; assay: Clinical Interview Based Impression of Change (CIBIC), Experiment III; type: in vivo, human; details: end of 16 week protocol; baseline 4.0; p<0.01 t-test one-tailed; spread SD
[10] = molecular target: plasma butyrylcholinesterase (Homo sapiens, UniProt P06276); assay: Plasma butyrylcholinesterase inhibition in blood after oral dosing (Experiment I); type: in vivo; details: oral doses
[11] = Experiment III, safety in patients suffering from SDAT
[12] = test system: brain acetylcholinesterase; assay: Brain acetylcholinesterase inhibition in rodents and monkeys; set-up: species or system rodent and monkey; details: monkey, in vivo
[13] = test system: patients suffering from SDAT; assay: Mini Mental State Exam, Experiment III double blind crossover; type: in vivo, human; details: p<0.01 one-tailed, paired t-test and Wilcoxon
[14] = Experiment I, side effects and clinical blood analyses in one normal volunteer; details: 0.016-0.22 mg/kg oral
[15] = test system: patients suffering from SDAT; assay: ADAS-COG cognitive performance, Experiment III double blind crossover; type: in vivo, human
[16] = Experiment II, Phase I tolerability in 10 normal subjects
SDAT patients = details: cited from earlier work
[17] = Prior tacrine treatment of two patients
[18] = acetyl-β-methylthiocholine substrate, pH 7.4, 25° C

T1 sequence (P22303 32-574): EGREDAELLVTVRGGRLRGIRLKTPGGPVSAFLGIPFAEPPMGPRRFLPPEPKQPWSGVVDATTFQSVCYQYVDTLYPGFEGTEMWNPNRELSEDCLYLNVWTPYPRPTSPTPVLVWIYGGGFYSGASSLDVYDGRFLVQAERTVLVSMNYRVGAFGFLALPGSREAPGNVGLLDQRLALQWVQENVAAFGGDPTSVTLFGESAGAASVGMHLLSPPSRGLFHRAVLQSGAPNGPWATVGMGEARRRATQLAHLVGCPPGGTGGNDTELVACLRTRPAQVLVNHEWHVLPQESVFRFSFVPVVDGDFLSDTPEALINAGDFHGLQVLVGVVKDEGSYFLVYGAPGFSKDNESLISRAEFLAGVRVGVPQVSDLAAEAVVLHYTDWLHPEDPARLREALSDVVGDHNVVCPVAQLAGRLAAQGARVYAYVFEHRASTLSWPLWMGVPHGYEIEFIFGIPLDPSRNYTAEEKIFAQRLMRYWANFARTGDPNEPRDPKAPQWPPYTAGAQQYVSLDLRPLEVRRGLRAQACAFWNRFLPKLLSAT
Sequence of plasma butyrylcholinesterase (P06276 29-602): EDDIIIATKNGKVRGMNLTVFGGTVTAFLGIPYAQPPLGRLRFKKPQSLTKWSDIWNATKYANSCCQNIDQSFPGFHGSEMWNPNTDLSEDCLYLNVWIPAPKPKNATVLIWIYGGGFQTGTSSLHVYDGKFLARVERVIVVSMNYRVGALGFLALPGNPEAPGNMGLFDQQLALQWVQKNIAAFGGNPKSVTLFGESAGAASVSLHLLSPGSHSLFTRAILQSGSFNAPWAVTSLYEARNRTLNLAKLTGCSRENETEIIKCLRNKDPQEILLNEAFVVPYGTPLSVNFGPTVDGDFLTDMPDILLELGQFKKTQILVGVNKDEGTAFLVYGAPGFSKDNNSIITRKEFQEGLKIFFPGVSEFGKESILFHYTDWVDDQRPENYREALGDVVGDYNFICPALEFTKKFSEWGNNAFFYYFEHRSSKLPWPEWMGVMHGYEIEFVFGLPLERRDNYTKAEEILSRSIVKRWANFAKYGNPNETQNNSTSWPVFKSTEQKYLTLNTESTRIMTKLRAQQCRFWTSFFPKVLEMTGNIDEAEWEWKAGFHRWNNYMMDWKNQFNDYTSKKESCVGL

CNC(=O)Oc1ccc2c(c1)[C@]1(C)CCN(C)[C@@H]1N2C [physostigmine, reference compound]
selectivity for acetylcholinesterase in comparison to butyrylcholinesterase (acetylcholinesterase [1]): do not show this high degree of selectivity

CC(=O)SC(C)C[N+](C)(C)C (stereo not drawn) [acetyl-β-methylthiocholine]
percent of Vmax produced by substrate concentration ([2]; 1.0 mM substrate, approximately 10 times Km, without substrate inhibition): about 91% | Acetylcholinesterase Vmax [2, 18]: 9.2552 (SEM=0.6386) ×10-6 moles/gram of erythrocytes/min | erythrocyte acetylcholinesterase Vmax [2, 18]: 9.2552 (SEM=0.6386) ×10^-6 moles/gm/min

CS(=O)(=O)F [methanesulfonyl fluoride]
inhibition at 0.14 mg/kg ([3]; 0.14 mg/kg oral three times per week, Experiment III, spread SEM in %): 85.3% | inhibition at 0.18 mg/kg ([3]; 0.18 mg/kg oral three times per week, Experiment III, spread SEM in %): 89.5% | estimated minimum therapeutic dose ([3]; 18% inhibition of remaining active enzyme per dose, Experiment I): 0.11 mg/kg | refined estimation of the (minimum) therapeutic dose ([3]; 18% inhibition of remaining enzyme, three times per week, Experiments I and II): 0.14 mg/kg | dose-response correlation r ([3]; Experiment II, FIG. 6, least squares linear regression): +0.8956 | dose/response relationship ([3]; Experiment II, FIG. 6, oral): orderly and consistent dose/response relationship | dose required to produce 18% inhibition of acetylcholinesterase remaining active ([3]; Experiment II, oral): 0.143 mg/kg | selectivity for erythrocyte acetylcholinesterase ([3]; FIG. 4, Experiment I oral doses, versus plasma butyrylcholinesterase): strongly selective for erythrocyte acetylcholinesterase | recovery kinetics of erythrocyte acetylcholinesterase ([3]; FIG. 5, 80 days after treatment ceased): follows pseudo-first order kinetics; also recorded: strictly linear plot of LOG10 [%INH] against time | half-life for recovery of erythrocyte acetylcholinesterase ([3]; FIG. 5, Experiment I, 80 days after last dose): 43 days | activity by oral administration (erythrocyte acetylcholinesterase inhibition) ([3]; oral, Experiment I, FIG. 1): active by oral administration | dose-response of erythrocyte acetylcholinesterase inhibition ([3]; oral, Experiment I, FIG. 1, one observation at each dose): orderly dose-response curve | inhibition of erythrocyte acetylcholinesterase ([3]; patients treated up to 8 weeks): 85-90% | correlation coefficient r, LOG10 [% inhibition] against time ([3]; recovery of erythrocyte acetylcholinesterase, FIG. 5, least squares linear regression): -0.9254 | concentration in the peripheral blood [4]: drops within hours | solubility in lipids ([5]; lipids): highly soluble in lipids | chemical stability in water solutions ([5]; water solutions): would degrade in water solutions | pharmacological activity if injected intramuscularly (rats and monkeys): pharmacologically active | enhancement of animal memory (animal memory): strong methanesulfonyl fluoride-induced enhancement of animal memory without toxicity | mean improvement in Global Deterioration Score ([6]; 16 weeks versus baseline, p<0.01 t-test one-tailed, spread SEM): 1.3 (SEM=0.33) | mean Global Deterioration Score at the end of the protocol ([6]; end of 16 week protocol, baseline 4.4 (SEM=0.21)): 3.1 | inhibition of brain acetylcholinesterase [7]: 80-90% | continued reaction against acetylcholinesterase (acetylcholinesterase [8]): continues to react against acetylcholinesterase even after it is removed from the aqueous environment of the membranes in vitro | mean CIBIC [9]: 2.98 (SD=1.13) | inhibition of plasma butyrylcholinesterase [10]: virtually no inhibition of plasma butyrylcholinesterase | adverse events ([11]; 0.14 mg/kg, first 7 patients): no adverse events | clinical blood profiles, especially transaminases ([11]; Experiment III): no changes in clinical blood profiles | nausea, vomiting, diarrhea, or other cholinergic side effects ([11]; Experiment III): no patients suffered | signs of toxicity at the doses used ([11]; Experiment III): no signs of methanesulfonyl fluoride toxicity | adverse events related to drug treatment ([11]; Experiment III, 0.14-0.18 mg/kg): no adverse events | patients leaving the protocol because of a drug-related adverse event ([11]; Experiment III, 21 enrolled, 15 completed): No patients | peripheral cholinergic or other toxic effects ([11]; doses sufficient for treatment of dementia): not accompanied by peripheral cholinergic or other toxic effects | hematocrit changes ([11]; patients, up to 8 weeks, 85-90% inhibition of erythrocyte acetylcholinesterase): no changes in hematocrit | adverse events in patients with known tacrine sensitivity ([11]; two patients with prior tacrine adverse effects): Neither of these patients with known sensitivities experienced adverse events | inhibition in brain versus peripheral tissues [12]: much more inhibition in brain than peripheral tissues | Mini-Mental State score change in 8 weeks compared to placebo [13]: significant improvement compared to the placebo | mechanism and duration of acetylcholinesterase inhibition (acetylcholinesterase [1]): long-acting irreversible inhibitor of acetylcholinesterase | selectivity for acetylcholinesterase in comparison to butyrylcholinesterase (acetylcholinesterase [1]): high selectivity | changes in the clinical blood analyses [14]: no changes of any type in the clinical blood analyses | cholinergic effects (e.g., diarrhea, vomiting, nausea) [14]: no cholinergic effects | percent improvement on the ADAS-COG ([15]; 6 point reduction from 30 errors): 20% | mean improvement on the ADAS-COG ([15]; Experiment III, mean of 30 errors at beginning): 6 points | cognitive performance (reduction in errors on the ADAS-COG) ([15]; FIG. 7, during methanesulfonyl fluoride treatment): substantial improvement of cognitive performance | duration of improvement after treatment ([15]; after/through 8 weeks of placebo treatment): still clearly present after 8 weeks of placebo treatment; also recorded: maintained through 8 weeks of placebo | efficacy compared with tacrine in enhancing cognitive functions in SDAT ([15]; in vivo): significantly greater efficacy than tacrine | improvement on ADAS-COG maintained throughout 8 additional weeks of placebo ([15]; methanesulfonyl fluoride first, then placebo): about 6 points | ADAS-COG change in 8 weeks compared to placebo ([15]; p<0.01 one-tailed, paired t-test and Wilcoxon): significant improvement compared to the placebo | correlation of ADAS-COG improvement with baseline ADAS-COG errors ([15]; p<0.05, N=15): +0.6 | tolerability ([16]; 0.03-0.18 mg/kg oral, Experiment II): All doses used were tolerated well | safety at range of doses expected to produce a therapeutic effect ([16]; Experiments I and II): safe at the range of doses expected to produce a therapeutic effect | oral absorption ([16]; oral, Experiment II): consistently absorbed after oral administration

COP(=O)(OC)C(O)C(Cl)(Cl)Cl (centres unmarked) [metrifonate, reference compound]
selectivity for acetylcholinesterase in comparison to butyrylcholinesterase (acetylcholinesterase [1]): do not show this high degree of selectivity

Nc1c2c(nc3ccccc13)CCCC2 [tacrine]
mean improvement on the ADAS-COG (SDAT patients; high dose tacrine, patients who could tolerate): 2 points | patients who could tolerate (SDAT patients; high dose tacrine): 40% | patients who failed to complete the protocol because of drug-related adverse events (SDAT patients; high dose tacrine): about 60% | adverse events related to treatment (SDAT patients; in vivo): cholinergic side effects (nausea, vomiting, diarrhea, etc.) and liver toxicity | prior adverse effects ([17]; one patient each): liver toxicity; also recorded: vomiting | highest tolerated dose (limited by vomiting) ([17]; one patient, an ineffective dose): 60 mg/day
